Our source for the TGI and GI50 values is PubChem BioAssay (NCI).

“And” between values parts separate entries of the source, which are not always exact repeats. Identical values can stand only once.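 Tested at 5 concentrations; 48 h exposure; 96-well plates; endpoints linearly interpolated, else capped at highest concentration. GI50: concentration for 50% inhibition of growth. TGI is the concentration that stops growth completely.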

Common to all, as to experiment: NCI tumour cell line growth inhibition, 48 h
Experiment [1] concerns OVCAR-5 ovarian.
The subject of experiment [2] is OVCAR-8 ovarian.
In experiment [3] the test system is KM12 colon.
In experiment [4] the test system is UACC-257 melanoma.
Experiment [5] concerns HCT-15 colon.
Experiment [6] relates to NCI-H460 lung.
For experiment [7], the system named is HCC-2998 colon.
The test system of experiment [8] is ACHN renal.
For experiment [9], the system named is SK-MEL-2 melanoma.
Experiment [10] relates to HL-60(TB) leukemia.

In the case of `N=Nc1c(OC(=O)Nc2ccccc2)[nH]c2ccccc12`, the TGI is above 100 µM in experiment [1]; 33.9 µM in experiment [2]; 29.3 µM in [3]; 92.2 µM in experiment [4]; above 100 µM in [5]; 25.7 µM in experiment [6]. In addition, the TGI in experiment [7] turned out to be 29.7 µM; in [8], 36.6 µM; in [9] it was 44.6 µM.

As for `O=C(COc1ccc(/C=C2\Oc3ccccc3C2=O)cc1)Nc1nccs1`, the GI50 in [1] is above 100 µM; in experiment [2] it was above 100 µM; in [3], 8.08 µM; in experiment [4] it was 39.3 µM; in experiment [5], above 100 µM; in experiment [6], 88 µM. The GI50 in [7] was above 100 µM; in experiment [8], above 100 µM; in experiment [9] it was 39 µM. Besides, the TGI in [1], in [2], in experiment [3], in [4], in experiment [5] and in experiment [6] was above 100 µM each time. For the same compound, the TGI in [7], in experiment [8] and in experiment [9] was above 100 µM throughout.

For `C/C=C(\C)c1cc(=O)c2c(C)cc3c(c2o1)C(=O)c1c(O)c(C2CC(C)(N(C)C)C(O)C(C)O2)cc(C2CC(N(C)C)C(O)C(C)O2)c1C3=O` (stereo not drawn), the GI50 in experiment [1] is 0.579 µM and 3.79 µM; in experiment [4], 0.505 µM and 2.59 µM; in experiment [5], 0.42 µM and 3.22 µM; in experiment [9], 3.67 µM. Further, the TGI in experiment [10] is 6.82 µM; in experiment [3], 2.42 µM and > 23 µM; in experiment [4], 1.9 µM and 8.55 µM; in experiment [5], 5.15 µM and 24.4 µM; in experiment [8] it was 0.504 µM; in experiment [9] it was 12.2 µM.

For `Cc1cc2cccnc2c2ncccc12`, the GI50 in experiment [1] was 1.35 µM; in experiment [2] it was 0.626 µM; in experiment [3] it was 0.78 µM; in experiment [4] it was 2.14 µM; in experiment [5] it was 0.436 µM; in [6], 0.508 µM. For the same compound, the GI50 was 2.75 µM in [7], 0.46 µM in experiment [8] and 2.38 µM in experiment [9]. For the same compound, the TGI was 42.1 µM in experiment [1]; 11.9 µM in experiment [2]; 18.4 µM in experiment [3]; 6.94 µM in [4]; 21.3 µM in experiment [5]; 2.54 µM in experiment [6]. In addition, the TGI stood at 68.2 µM in [7], 7.51 µM in experiment [8] and 31.9 µM in experiment [9].

For the compound `O=C(Cn1c(=O)c(-c2ccccc2)nc2ccccc21)c1ccc(Cl)cc1`, the GI50 is above 100 µM in experiment [1]; 51.9 µM in experiment [2]; 98.1 µM in [3]; above 100 µM in [4]; above 100 µM in experiment [5]; 75.6 µM in [6]. The results for the GI50 in [7], in [8] and in experiment [9] were 99.5 µM, 38.6 µM and above 100 µM, respectively. Moreover, the TGI in experiment [1], in experiment [2], in [3], in experiment [4], in experiment [5] and in [6] was above 100 µM each time. Further, the TGI in experiment [7], in [8] and in [9] was above 100 µM throughout.

As to `CN1C(OCc2ccccc2)c2c(ccc3c2OCO3)C2C=Cc3cc4c(cc3C21)OCO4` (stereo not drawn), the TGI in experiment [1] stood at 2.86 µM; in experiment [2], 1.05 µM; in experiment [3], 2.22 µM; in experiment [4], 2.68 µM; in experiment [5], 1.83 µM; in [6] it was 3.09 µM. Moreover, the TGI came to 2.99 µM in [7], 2.83 µM in experiment [8] and 2.92 µM in experiment [9].

For `CN1CCN(CCCOc2cccc3nc(Nc4ccc(Cl)c(F)c4)ccc23)CC1`, the GI50 in experiment [1] is 1.55 µM; in experiment [2] it was 2.02 µM; in experiment [3] it was 1.77 µM; in experiment [4], 2.04 µM; in experiment [5] it was 1.4 µM; in experiment [6], 1.91 µM. For the same compound, the GI50 in experiment [7] is 1.52 µM; in [8], 1.66 µM; in experiment [9], 1.88 µM. Further, the TGI in experiment [1] amounted to 3.26 µM; in [2], 3.65 µM; in [3], 3.43 µM; in experiment [4], 3.64 µM; in [5], 2.79 µM; in experiment [6] it was 3.7 µM. Moreover, the TGI amounted to 3.07 µM in experiment [7], 3.07 µM in [8] and 3.7 µM in experiment [9].

As for `CC(N=C(N)N)C(=O)O` (stereo not drawn), the TGI in experiment [1], in experiment [2], in experiment [3], in experiment [4], in [5] and in [7] was above 100 µM each time. Further, the TGI in experiment [8] and in [9] was above 100 µM each time.

Take `C[C@@H](C1CCC2C3C(=CC(=O)[C@@]21C)[C@H](C)[C@]1(CCC(=O)O1)C1OC31)[C@H]1C[C@]2(C)O[C@@](C)(O1)OC2(C)C` (stereo partly drawn): the TGI in [2], in experiment [10], in experiment [5], in [6] and in experiment [8] was above 100 µM throughout.
